# Tested on: GP2D cells
# Assay: Cell proliferation assay (CellTiter-Glo), K-Ras G12D cells
# Assay type: cell-based
# Conditions: GP2D cells (K-Ras G12D); read-out: Inhibition of GP2D Cells (IC50)
# Description: ASPC-1 (ATCC CRL-1682), Panc-10.05 (ATCC CRL-2547), A427, and GP2D (Sigma 95090714) cell lines comprise a G12D mutation and can be used to assess Ras cellular signaling in vitro, e.g., in response to the compounds herein. […] ASPC-1 culture medium is prepared with RPMI-1640 and 10% heat-inactivated FBS. Panc-10.05 culture medium is prepared with RPMI-1640, 10 Units/ml human recombinant insulin, and 10% FBS. A427 cell culture is prepared with RPMI-1640 and 10% heat-inactivated FBS. GP2D culture medium is prepared with DMEM with 2mM glutamine and 10% heat-inactivated FBS. A Cell Titer-Glo (CTG) luminescent based assay (Promega) is used to assess growth of the cells, as a measurement of the ability of the compounds herein to inhibit Ras signaling in the cells. The cells (e.g., 800 per well) are seeded in their respective culture medium in standard tissue culture-treated 384-well format plates (Falcon #08-772-116) or ultra-low attachment surface 384-well format plates (S-Bio # MS-9384UZ ). The day after plating, cells are treated with a dilution series (e.g., a 9 point 3-fold dilution series) of the compounds herein (e.g., approximately 40 µl final volume per well). Cell viability can be monitored (e.g., approximately 5 days later) according to the manufacturer's recommended instructions, where the CellTiter-Glo reagent is added (e.g., approximately 10 µl), vigorously mixed, covered, and placed on a plate shaker (e.g., approximately for 20 min) to ensure sufficient cell lysis prior to assessment of luminescent signal. The IC50 values are determined using the four parameter fit. The resulting IC50 value is a measurement of the ability of the compounds herein to reduce cell growth of Ras-driven cells (e.g., tumor cell lines) in vitro and/or in vivo.
row,Compound,IC50 [nM]
1,"Nc1nc2c(-c3c(Cl)cc4c(NC5CCN(C(=O)n6cnc(F)c6)CC5)nc(OC[C@@]56CCCN5C[C@H](F)C6)nc4c3F)ccc(F)c2s1 [Compound A193, (4-((7-(2-amino-7-fluorobenzo[d]thiazol-4-yl)-6-chloro-8-fluoro-2-(((2R,7aS)-2-fluorotetrahydro-1H-pyrrolizin-7a(5H)-yl)methoxy)quinazolin-4-yl)amino)piperidin-1-yl)(4-fluoro-1H-imidazol-1-yl)methanone]",1000 to 10000
2,"Nc1nc2c(-c3c(Cl)cc4c(NC5CCN(C(=O)n6ccc(F)n6)CC5)nc(OC[C@@]56CCCN5C[C@H](F)C6)nc4c3F)ccc(F)c2s1 [Compound A222, (4-((7-(2-amino-7-fluorobenzo[d]thiazol-4-yl)-6-chloro-8-fluoro-2-(((2R,7aS)-2-fluorotetrahydro-1H-pyrrolizin-7a(5H)-yl)methoxy)quinazolin-4-yl)amino)piperidin-1-yl)(3-fluoro-1H-pyrazol-1-yl)methanone]",1000 to 10000
3,"C#Cc1c(F)ccc2cc(O)cc(-c3ncc4c(N5CC6CCC(C5)N6C(=O)Nc5ncccn5)nc(OC[C@@]56CCCN5C[C@H](F)C6)nc4c3F)c12 [Compound A131, 3-(7-(8-ethynyl-7-fluoro-3-hydroxynaphthalen-1-yl)-8-fluoro-2-(((2R,7aS)-2-fluorotetrahydro-1H-pyrrolizin-7a(5H)-yl)methoxy)pyrido[4,3-d]pyrimidin-4-yl)-N-(pyrimidin-2-yl)-3,8-diazabicyclo[3.2. 1]octane-8-carboxamide]",≤ 1000
4,"N#Cc1c(N)sc2c(F)ccc(-c3c(Cl)cc4c(N5CC6CCC(C5)N6C(=O)n5ccnc5C#N)nc(OC[C@@]56CCCN5C[C@H](F)C6)nc4c3F)c12 [Compound A220, 1-(3-(7-(2-amino-3-cyano-7-fluorobenzo[b]thiophen-4-yl)-6-chloro-8-fluoro-2-(((2R,7aS)-2-fluorotetrahydro-1H-pyrrolizin-7a(5H)-yl)methoxy)quinazolin-4-yl)-3,8-diazabicyclo[3.2. 1]octane-8-carbonyl)-1H-imidazole-2-carbonitrile]",≤ 1000
5,"C#Cc1c(F)ccc2cc(O)cc(-c3ccc4c(N5CC6CCC(C5)N6C(=O)n5cncn5)nc(OC[C@@]56CCCN5C[C@H](F)C6)nc4c3F)c12 [Compound A281, (3-(7-(8-ethynyl-7-fluoro-3-hydroxynaphthalen-1-yl)-8-fluoro-2-(((2R,7aS)-2-fluorotetrahydro-1H-pyrrolizin-7a(5H)-yl)methoxy)quinazolin-4-yl)-3,8-diazabicyclo[3.2.1]octan-8-yl)(1H-1,2,4-triazol-1-yl)methanone]",≤ 1000
6,N#Cc1c(N)sc2c(F)ccc(-c3c(Cl)cc4c(N5CC6CCC(C5)N6C(=O)n5ncnc5C#N)nc(OC[C@@]56CCCN5C[C@H](F)C6)nc4c3F)c12 [Compound A246],≤ 1000
7,"C#Cc1c(F)ccc2cc(O)cc(-c3ncc4c(N5CC6CCC(C5)N6C(=O)n5cncn5)nc(OC[C@@]56CCCN5C[C@H](F)C6)nc4c3F)c12 [Compound A234, (3-(7-(8-ethynyl-7-fluoro-3-hydroxynaphthalen-1-yl)-8-fluoro-2-(((2R,7aS)-2-fluorotetrahydro-1H-pyrrolizin-7a(5H)-yl)methoxy)pyrido[4,3-d]pyrimidin-4-yl)-3,8-diazabicyclo[3.2.1]octan-8-yl)(1H-1,2,4-triazol-1-yl)methanone]",≤ 1000

# Same assay, conditions: GP2d, read-out: Inhibition of GP2D Cells (IC50)
row,Compound,IC50 [nM]
1,"N#Cc1c(N)sc2c(F)ccc(-c3c(Cl)cc4c(O[C@@H]5C[C@H]6CC[C@@H](C5)N6C(=O)n5cncn5)nc(OC[C@@]56CCCN5C[C@H](F)C6)nc4c3F)c12 [Compound A247, 4-(4-(((1R,3s,5S)-8-(1H-1,2,4-triazole-1-carbonyl)-8-azabicyclo[3.2.1]octan-3-yl)oxy)-6-chloro-8-fluoro-2-(((2R,7aS)-2-fluorotetrahydro-1H-pyrrolizin-7 a(5H)-yl)methoxy)quinazolin-7-yl)-2-amino-7-fluorobenzo[b]thiophene-3-carbonitrile]",1000 to 10000
2,"C#Cc1c(F)ccc2cccc(-c3ccc4c(N5CC6CCC(C5)N6C(=O)n5cncn5)nc(OC[C@@]56CCCN5C[C@H](F)C6)nc4c3F)c12 [Compound A229, (3-(7-(8-ethynyl-7-fluoronaphthalen-1-yl)-8-fluoro-2-(((2R,7aS)-2-fluorotetrahydro-1H-pyrrolizin-7a(5H)-yl)methoxy)quinazolin-4-yl)-3,8-diazabicyclo[3.2.1]octan-8-yl)(1H-1,2,4-triazol-1-yl)methanone]",1000 to 10000
3,"N#Cc1cnn(C(=O)N2C3CCC2CN(c2nc(OC[C@@]45CCCN4C[C@H](F)C5)nc4c(F)c(-c5ccc(F)c6sc(N)c(C#N)c56)ccc24)C3)c1 [Compound A176, 1-(3-(7-(2-amino-3-cyano-7-fluorobenzo[b]thiophen-4-yl)-8-fluoro-2-(((2R,7aS)-2-fluorotetrahydro-1H-pyrrolizin-7a(5H)-yl)methoxy)quinazolin-4-yl)-3,8-diazabicyclo[3.2. 1]octane-8-carbonyl)-1H-pyrazole-4-carbonitrile]",1000 to 10000

# Target: T1, K-Ras G12S (Homo sapiens, UniProt P01116, G12S)
# T1 construct: made in house; host or cells: E. coli (e.g., BL21 (DE3))
# T1 sequence (P01116 1-188 isoform P01116-2 G12S): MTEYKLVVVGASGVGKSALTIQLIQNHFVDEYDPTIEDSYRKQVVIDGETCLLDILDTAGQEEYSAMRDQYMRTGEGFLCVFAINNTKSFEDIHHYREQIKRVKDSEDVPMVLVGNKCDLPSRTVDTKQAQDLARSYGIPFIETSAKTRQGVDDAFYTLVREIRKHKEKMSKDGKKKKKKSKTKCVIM
# Assay: HTRF assay of the K-Ras / SOS1 interaction
# Assay type: biochemical
# Conditions: IC50 (against K-Ras G12D) to IC50 (against K-Ras G12S)
# Procedure, shortened: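 Compounds (duplicates, 10 µM to 0.01 µM) were incubated ≥~10 min with Eu-labelled GST-K-Ras G12S and XL665-labelled His-hSOS1 in HEPES pH 7.4 buffer containing NaCl, DTT, BSA and Igepal. Disruption measured as HTRF emission ratio 665/620 nm, fitted to IC50.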
row,Compound,Ratio of IC50 KRAS G12D vs. IC50 KRAS G12S
1,"Nc1nc2c(-c3c(Cl)cc4c(NC5CCN(C(=O)n6cnc(F)c6)CC5)nc(OC[C@@]56CCCN5C[C@H](F)C6)nc4c3F)ccc(F)c2s1 [Compound A193, (4-((7-(2-amino-7-fluorobenzo[d]thiazol-4-yl)-6-chloro-8-fluoro-2-(((2R,7aS)-2-fluorotetrahydro-1H-pyrrolizin-7a(5H)-yl)methoxy)quinazolin-4-yl)amino)piperidin-1-yl)(4-fluoro-1H-imidazol-1-yl)methanone]",A (A: indicates that the ratio of IC50 against KrasG12D vs. IC50 against KrasG12S is 1-fold or greater)
2,"Nc1nc2c(-c3c(Cl)cc4c(NC5CCN(C(=O)n6ccc(F)n6)CC5)nc(OC[C@@]56CCCN5C[C@H](F)C6)nc4c3F)ccc(F)c2s1 [Compound A222, (4-((7-(2-amino-7-fluorobenzo[d]thiazol-4-yl)-6-chloro-8-fluoro-2-(((2R,7aS)-2-fluorotetrahydro-1H-pyrrolizin-7a(5H)-yl)methoxy)quinazolin-4-yl)amino)piperidin-1-yl)(3-fluoro-1H-pyrazol-1-yl)methanone]",A (A: indicates that the ratio of IC50 against KrasG12D vs. IC50 against KrasG12S is 1-fold or greater)
3,"Nc1nc2c(-c3c(Cl)cc4c(NC5CCN(C(=O)n6cccn6)CC5)nc(OC[C@@]56CCCN5C[C@H](F)C6)nc4c3F)ccc(F)c2s1 [Compound A254, (4-((7-(2-amino-7-fluorobenzo[d]thiazol-4-yl)-6-chloro-8-fluoro-2-(((2R,7aS)-2-fluorotetrahydro-1H-pyrrolizin-7a(5H)-yl)methoxy)quinazolin-4-yl)amino)piperidin-1-yl)(1H-pyrazol-1-yl)methanone]",A (A: indicates that the ratio of IC50 against KrasG12D vs. IC50 against KrasG12S is 1-fold or greater)
4,"N#Cc1c(N)sc2c(F)ccc(-c3c(Cl)cc4c(N5CCOC6(CN(C(=O)n7cncn7)C6)C5)nc(OC[C@@]56CCCN5C[C@H](F)C6)nc4c3F)c12 [Compound A232, 4-(4-(2-(1H-1,2,4-triazole-1-carbonyl)-5-oxa-2,8-diazaspiro[3.5]nonan-8-yl)-6-chloro-8-fluoro-2-(((2R,7aS)-2-fluorotetrahydro-1H-pyrrolizin-7a(5H)-yl)methoxy)quinazolin-7-yl)-2-amino-7-fluorobenzo[b]thiophene-3-carbonitrile]",A (A: indicates that the ratio of IC50 against KrasG12D vs. IC50 against KrasG12S is 1-fold or greater)
5,"Nc1nc2c(-c3c(Cl)cc4c(N5CCC6(CCN(C(=O)n7cncn7)C6)C5)nc(OC[C@@]56CCCN5C[C@H](F)C6)nc4c3F)ccc(F)c2s1 (stereo partly drawn) [Compound A175, (7-(7-(2-amino-7-fluorobenzo[d]thiazol-4-yl)-6-chloro-8-fluoro-2-(((2R,7aS)-2-fluorotetrahydro-1H-pyrrolizin-7a(5H)-yl)methoxy)quinazolin-4-yl)-2,7-diazaspiro[4.4]nonan-2-yl)(1H-1,2,4-triazol-1-yl)methanone]",A (A: indicates that the ratio of IC50 against KrasG12D vs. IC50 against KrasG12S is 1-fold or greater)
6,"Nc1nc2c(-c3c(Cl)cc4c(N5CCN(C6CN(C(=O)n7cncn7)C6)CC5)nc(OC[C@@]56CCCN5C[C@H](F)C6)nc4c3F)ccc(F)c2s1 [Compound A267, (3-(4-(7-(2-amino-7-fluorobenzo[d]thiazol-4-yl)-6-chloro-8-fluoro-2-(((2R,7aS)-2-fluorotetrahydro-1H-pyrrolizin-7a(5H)-yl)methoxy)quinazolm-4-yl)piperazin-1-yl)azetidin-1-yl)(1H-1,2,4-triazol-1-yl)methanone]",A (A: indicates that the ratio of IC50 against KrasG12D vs. IC50 against KrasG12S is 1-fold or greater)
7,"Nc1nc2c(-c3c(Cl)cc4c(NC5CCC6(C5)CN(C(=O)n5cncn5)C6)nc(OC[C@@]56CCCN5C[C@H](F)C6)nc4c3F)ccc(F)c2s1 (stereo partly drawn) [Compound A142, (6-((7-(2-amino-7-fluorobenzo[d]thiazol-4-yl)-6-chloro-8-fluoro-2-(((2R,7aS)-2-fluorotetrahydro-1H-pyrrolizin-7a(5H)-yl)methoxy)quinazolin-4-yl)amino)-2-azaspiro[3.4]octan-2-yl)(1H-1,2,4-triazol-1-yl)methanone]",A (A: indicates that the ratio of IC50 against KrasG12D vs. IC50 against KrasG12S is 1-fold or greater)

# Source: patent EP4389751A1, “HETEROCYCLIC COMPOUNDS AND USES THEREOF” (Kumquat Biosciences Inc., priority 2021, dated 2024)
